Tests used:
[1] = test system: Arp2/3 complex; experiment: in vitro actin polymerization test (pyrene-labeled actin); assay type: biochemical; conditions: 10 μM, VCA domain protein, spherical actin monomers, 1 hour, compared to control (FIG. 1)
Experimental: Although actin polymerization, which is a process of forming actin filaments from actin monomers, is involved in controlling cell movement, tissue fibrosis may be caused by the promotion of excessive α-SMA expression and induction of myofibroblast activation. Accordingly, an in vitro actin polymerization test was performed to confirm the actin polymerization controlling function of the compounds according to the present invention.
Specifically, a pyrene-labeled spherical actin stock was diluted with general actin buffer (5 mM Tris-HCl pH 8.0, 0.2 mM CaCl2)) and incubated at 4° C. for 1 hour, thereby producing spherical actin monomers. Afterward, 80% of a supernatant was recovered by centrifugation at 20,000×g and 4° C. for 3 hours, and 0.1 mg/mL spherical actin monomers were prepared. The Arp2/3 complex, the VCA domain protein, and Compound 12, 38, or 59 (10 μM each) according to the present invention were added to the spherical actin monomers and an actin polymerization buffer and reacted at room temperature for 1 hour. The increased fluorescence intensity during the reaction from the spherical actin monomer to a fibrous actin polymer was measured using a microplate reader at an excitation wavelength of 360 nm and an emission wavelength of 407 nm. The degree of actin polymerization was shown relative to the maximum polymerization rate (arbitrary units).

[2] = test system: p-SMAD2; experiment: phosphorylation of SMAD2 by Western blotting in TGF-β1-treated fibroblasts; assay type: cell-based; conditions: TGF-β1 (10 ng/mL), 70 hours
From the text: (§1) α-SMA protein is a marker of activated myofibroblasts, which are the main effector cells of fibrosis, myofibroblasts with increased α-SMA expression are known to produce a fibrotic protein such as collagen type 1 and cause fibrosis. Therefore, in this example, it was confirmed whether the compound according to the present invention is effective in inhibiting fibrosis by reducing the expression of α-SMA and other pro-fibrotic factors (COL1A1, COL4A1, fibronectin, and p-SMAD2).
(§2) Specifically, lung tissue-derived fibroblasts, MRC5 cells, were treated with Compound 59 according to the present invention (5, 10, or 20 μM), nintedanib (1 μM), or DMSO, and then 2 hours later, treated with TGF-β1 (10 ng/mL). After 70 hours, the cells were lysed in RIPA buffer (50 mM Tris-HCl, 150 mM NaCl, 1% NP-40, 0.5% sodium deoxycholate, 0.1% SDS, protease inhibitor & phosphatase inhibitor cocktail, pH 8.0), which had been cooled to 4° C. The cell lysate was centrifuged at 4° C. at a speed of 15,000×g for 30 minutes, and then the supernatant was collected. After matching the total amount of proteins in the supernatant of each sample (15 to 30 μg), the proteins were separated according to molecular weight using SDS polyacrylamide gel electrophoresis (SDS-PAGE). […]

[3] = test system: MCR5 cell line; experiment: intracellular F-actin polymerization, TGF-β1-treated cells, confocal microscope; assay type: cell-based; conditions: 10 μM along with TGF-β1 (10 ng/mL), 48 hours (FIGS. 2A and 2B)
From the text: F-actin polymerization activates transcription factors involved in the activation of myofibroblasts and the initiation of fibrosis. Accordingly, when F-actin polymerization decreases, the expression of fibrosis-causing genes by the transcription factors may be inhibited, and the activation and fibrosis of muscle fiber cells may be reduced. Therefore, in this example, it was confirmed whether the compounds according to the present invention are effective in inhibiting F-actin polymerization.
An MCR5 cell line was dispensed at 1×10^3 cells/well in a 96-well black micro plate and cultured in Medium 1 (10% FBS-containing MEM) in 5% CO2 at 37° C. for 24 hours. Subsequently, the above medium was exchanged with Medium 2 (0.5% FBS-containing MEM), a compound of the present invention was treated at 10 μM along with TGF-β1 (10 ng/mL), and the cells were incubated for 48 hours. After removing the entire batch, the cells were treated with each of CellMask Orange Actin Tracking Stain (Invitrogen) and NucBlue Live ReadyProbes (Invitrogen) to performing F-actin and cell nucleus staining in accordance with the manufacturer's recommended conditions. Cells treated with the staining reagents were incubated for 30 minutes at 5% CO2 and 37° C. while blocking light. After completing the incubation, the staining reagents were removed, fresh Medium 1 was added to the cells at 100 μL/well, and then the cells were incubated for 5 minutes, followed by removal of the medium. The above process was repeated three times. To observe the stained F-actin and cell nucleus, PBS was added to the plate at 100 μL/well, and then the cells were photographed using a confocal microscope (Leica) and analyzed using Image J software.

[4] = test system: α-SMA; experiment: α-SMA protein level by Western blotting in TGF-β1-treated fibroblasts; assay type: cell-based; conditions: MRC5 cells, 5, 10, or 20 μM, TGF-β1 (10 ng/mL), 70 hours
From the text: as §1, §2

[5] = test system: COL1A1; experiment: COL1A1 protein level by Western blotting in TGF-β1-treated fibroblasts; assay type: cell-based; conditions: MRC5 cells, 5, 10, or 20 μM, TGF-β1 (10 ng/mL), 70 hours
From the text: as §1, §2

[6] = test system: α-SMA; experiment: α-SMA expression inhibitory ability in MRC5 cell line (Western blotting); assay type: cell-based; conditions: TGF-β1 (10 ng/mL), 72 hours, relative to TGF-β1 only
Summary of the method: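 MRC5 cells given compound at 10 μM, then TGF-β1 (10 ng/mL) 2 h later; after 72 h, lysates probed for α-SMA by Western blot. Inhibition is α-SMA level relative to TGF-β1 alone, binned A ≥70%, B 50–<70%, C <50%.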

[7] = test system: COL4A1; experiment: COL4A1 protein level by Western blotting in TGF-β1-treated fibroblasts; assay type: cell-based; conditions: MRC5 cells, 5, 10, or 20 μM, TGF-β1 (10 ng/mL), 70 hours
From the text: as §1, §2

[8] = test system: fibronectin; experiment: fibronectin protein level by Western blotting in TGF-β1-treated fibroblasts; assay type: cell-based; conditions: MRC5 cells, 5, 10, or 20 μM, TGF-β1 (10 ng/mL), 70 hours
From the text: as §1, §2

[9] = clinical use in IPF patients; cited from earlier work

Structure (SMILES) | inhibition at 10 µM [6] | also measured
CC(C(=O)N1CCN(c2ccccc2)c2ccccc21)N1CCCC[C@H]1C (stereo partly drawn) [Compound 59, 2-((R)-2-methylpiperidin-1-yl)-1-(4-phenyl-3,4-dihydroquinoxaline-1(2H)-yl)propan-1-one phosphate] | < 50% | actin polymerization activity (maximum polymerization rate) [1]: decreased compared to the control; phosphorylation of SMAD2 protein ([2]; MRC5 cells, 5, 10, or 20 μM): decreased in a concentration-dependent manner; phosphorylation of SMAD2 protein compared to nintedanib ([2]; MRC5 cells, compared to nintedanib (1 μM)): reduced to a greater extent; intracellular F-actin polymerization [3]: significantly reduced; α-SMA protein level [4]: significantly decreased; COL1A1 protein level [5]: greatly decreased; COL4A1 protein level [7]: greatly decreased; fibronectin protein level [8]: greatly decreased
Cc1ccc(=O)n(-c2ccccc2)c1 [Pirfenidone] |  | improvement in lung function (treatment effect) in IPF [9]: about 10%
CN1CCN(CCC(=O)N2CCN(c3ccc(F)cc3)c3cc(F)ccc32)CC1 [Compound 39, 1-(6-fluoro-4-(4-fluorophenyl)-3,4-dihydroquinoxaline-1(2H)-yl)-3-(4-methylpiperazin-1-yl)propan-1-one] | 50 to 70% | 
O=C(CCN1CCCCC1)N1CCN(Cc2ccccc2Cl)c2ccccc21 [Compound 88, 1-(4-(2-chlorobenzyl)-3,4-dihydroquinoxaline-1(2H)-yl)-3-(piperidin-1-yl)propan-1-one] | < 50% | 
CC(C)N1CCN(C(=O)CCN2CCN(C)CC2)c2ccccc21 [Compound 179, 1-(4-isopropyl-3,4-dihydroquinoxaline-1(2H)-yl)-3-(4-methylpiperazin-1-yl)propan-1-one] | < 50% | 
O=C(CCN1CCN2CCCC2C1)N1CCN(c2ccc(F)cc2)c2cc(F)ccc21 (stereo not shown) [Compound 42, 1-(6-fluoro-4-(4-fluorophenyl)-3,4-dihydroquinoxaline-1(2H)-yl)-3-(hexahydropyrrolo[1,2-a]pyrazin-2(1H)-yl)propan-1-one] | < 50% | 
O=C(CCN1CCCC1)N1CCN(C(=O)c2ccccc2)c2ccccc21 [Compound 196, 1-(4-benzoyl-3,4-dihydroquinoxaline-1(2H)-yl)-3-(pyrrolidin-1-yl)propan-1-one] | < 50% | 
O=C(CN1CCN(c2ccccc2)c2ccccc21)N1CCN2CCCC2C1 (stereo not shown) [Compound 75] | 50 to 70% | 
O=C(CCNCc1ccccn1)N1CCN(c2ccc(F)cc2)c2ccccc21 [Compound 21, 1-(4-(4-fluorophenyl)-3,4-dihydroquinoxaline-1(2H)-yl)-3-((pyridin-2-ylmethyl)amino)propan-1-one] | 50 to 70% | 
CC(C)N1CCN(C(=O)CCN2CCCC2)c2ccccc21 [Compound 177, 1-(4-isopropyl-3,4-dihydroquinoxaline-1(2H)-yl)-3-(pyrrolidin-1-yl)propan-1-one] | < 50% | 
CN1CC[C@H](NCCC(=O)N2CCN(c3ccc(F)cc3)c3ccccc32)C1 [Compound 27, (S)-1-(4-(4-fluorophenyl)-3,4-dihydroquinoxaline-1(2H)-yl)-3-((1-methylpyrrolidin-3-yl)amino)propan-1-one] | ≥ 70% | 
CC(C(=O)N1CCN(c2ccccc2)c2cc(F)ccc21)N1CCN(C)CC1 (stereo not shown) [Compound 11, 1-(6-fluoro-4-phenyl-3,4-dihydroquinoxaline-1(2H)-yl)-2-(4-methylpiperazin-1-yl)propan-1-one] | 50 to 70% | 
O=C(CN1CCCC1)N1CCN(c2cccc(Cl)c2)c2ccccc21 [Compound 138, 1-(4-(3-chlorophenyl)-3,4-dihydroquinoxaline-1(2H)-yl)-2-(pyrrolidin-1-yl)ethan-1-one] | ≥ 70% | 
CC(C(=O)N1CCN(c2cccc(Cl)c2)c2ccccc21)N1CCN(C)CC1 (stereo not shown) [Compound 137, 1-(4-(3-chlorophenyl)-3,4-dihydroquinoxaline-1(2H)-yl)-2-(4-methylpiperazin-1-yl)propan-1-one] | ≥ 70% | 
O=C(CN1CCCCC1)N1CCN(Cc2ccccc2)c2ccccc21 [Compound 85, 1-(4-benzyl-3,4-dihydroquinoxaline-1(2H)-yl)-2-(piperidin-1-yl)ethan-1-one] | < 50% | 
O=C(CCN1CCCC1)N1CCN(c2ccc(F)cc2)c2ccccc21 [Compound 14, 1-(4-(4-fluorophenyl)-3,4-dihydroquinoxaline-1(2H)-yl)-3-(pyrrolidin-1-yl)propan-1-one] | ≥ 70% | 
O=C(CCN1CCCCC1)N1CCN(c2ccccc2Cl)c2ccccc21 [Compound 126, 1-(4-(2-chlorophenyl)-3,4-dihydroquinoxaline-1(2H)-yl)-3-(piperidin-1-yl)propan-1-one] | 50 to 70% | 
CC(C(=O)N1CCN(c2ccc(F)cc2)c2cc(F)ccc21)N1CCCCC1 (stereo not shown) [Compound 53, 1-(6-fluoro-4-(4-fluorophenyl)-3,4-dihydroquinoxaline-1(2H)-yl)-2-(piperidin-1-yl)propan-1-one] | < 50% | 
CC(C(=O)N1CCN(c2ccccc2)c2cc(F)ccc21)N1CCCCC1 (stereo not shown) [Compound 12, 1-(6-fluoro-4-phenyl-3,4-dihydroquinoxaline-1(2H)-yl)-2-(piperidin-1-yl)propan-1-one] | ≥ 70% | actin polymerization activity (maximum polymerization rate) [1]: decreased compared to the control; intracellular F-actin polymerization [3]: significantly reduced
O=C(CCN1CCCCC1)N1CCN(c2ccc(F)cc2)c2cc(F)ccc21 [Compound 38, 1-(6-fluoro-4-(4-fluorophenyl)-3,4-dihydroquinoxaline-1(2H)-yl)-3-(piperidin-1-yl)propan-1-one] | ≥ 70% | actin polymerization activity (maximum polymerization rate) [1]: decreased compared to the control; intracellular F-actin polymerization [3]: significantly reduced
CC(C(=O)N1CCN(Cc2ccccc2)c2ccccc21)N1CCCCC1 (stereo not shown) [Compound 82, 1-(4-benzyl-3,4-dihydroquinoxaline-1(2H)-yl)-2-(piperidin-1-yl)propan-1-one] | < 50% | 
CC(C(=O)N1CCN(c2ccccc2Cl)c2ccccc21)N1CCCC1 (stereo not shown) [Compound 128, 1-(4-(2-chlorophenyl)-3,4-dihydroquinoxaline-1(2H)-yl)-2-(pyrrolidin-1-yl)propan-1-one] | 50 to 70% | 
